Drawing on patent publication US7868026B2, “Therapeutic compounds” (Pfizer Inc., priority 2005, dated 2011), this text covers IC50 and Ki for 25 compounds.

Where two headings read alike, the source gives them in different places. A value given as a limit tells only on which side of the number the result lay.

In general, IC50 refers to the concentration that gives 50% inhibition.

Holding throughout (format): biochemical
The target in test [1] is T1, CYP3A4 (Homo sapiens, UniProt P08684). Nature of the test: Determination of IC50 against CYP3A4 by measurement of inhibition of testosterone metabolism (human liver microsomes, 6-β-OH-testosterone by LC-MS/MS). On the set-up: 0.1 mg/mL human liver microsomes. The following applies: read-out: IC50 (Testo.). The method in brief:
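Human liver microsomes (0.1 mg/mL) incubated with 25 μM testosterone and 1 mM NADPH in 100 mM potassium phosphate, pH 7.4, for eight minutes. 6-β-OH-testosterone measured by LC-MS/MS in MRM mode against an internal standard and quantified from a metabolite standard curve.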
A general note: Microsomes from liver hold many membrane-bound enzymes, among them those of drug oxidation.

Test [2] concerns the target T1, CYP3A4. The test is described as follows: Determination of IC50 against CYP3A4 by measurement of inhibition of midazolam metabolism (human liver microsomes, 1-hydroxymidazolam by LC-MS/MS). On the set-up: 0.1 mg/mL human liver microsomes. Conditions: 2 μM midazolam, 0.1 mg/mL human liver microsomes. In outline:
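Human liver microsomes (0.1 mg/mL) incubated 8 min with 2 μM midazolam and 1 mM NADPH in 100 mM potassium phosphate, pH 7.4. 1-Hydroxymidazolam quantified by LC-MS/MS (MRM) as peak area ratio to internal standard against a metabolite standard curve.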

Test [3] deals with T1, CYP3A4. Nature of the test: Determination of compound Kiapp against recombinant CYP3A4 enzyme (BFC fluorescent substrate). In outline:
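Recombinant CYP3A4 (5.5 or 8 nM, with or without b5 depending on source) pre-incubated with inhibitor ≥30 min at room temperature in 100 mM sodium phosphate pH 7.0, 5 mM TCEP, 2% DMF. Reaction started with 200 uM NADPH and 5 uM BFC; initial fluorescence rates over 5 min fitted to Morrison tight-binding (non-partial) or Szedlacsek (partial) equations for Kiapp.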

[4] abbreviates: Baculo. enzyme preparation, read-out: Kiapp (BFC, Baculo.).
[5] abbreviates: Super. enzyme preparation, read-out: Kiapp (BFC, Super.).

T1 sequence (P08684 whole entry): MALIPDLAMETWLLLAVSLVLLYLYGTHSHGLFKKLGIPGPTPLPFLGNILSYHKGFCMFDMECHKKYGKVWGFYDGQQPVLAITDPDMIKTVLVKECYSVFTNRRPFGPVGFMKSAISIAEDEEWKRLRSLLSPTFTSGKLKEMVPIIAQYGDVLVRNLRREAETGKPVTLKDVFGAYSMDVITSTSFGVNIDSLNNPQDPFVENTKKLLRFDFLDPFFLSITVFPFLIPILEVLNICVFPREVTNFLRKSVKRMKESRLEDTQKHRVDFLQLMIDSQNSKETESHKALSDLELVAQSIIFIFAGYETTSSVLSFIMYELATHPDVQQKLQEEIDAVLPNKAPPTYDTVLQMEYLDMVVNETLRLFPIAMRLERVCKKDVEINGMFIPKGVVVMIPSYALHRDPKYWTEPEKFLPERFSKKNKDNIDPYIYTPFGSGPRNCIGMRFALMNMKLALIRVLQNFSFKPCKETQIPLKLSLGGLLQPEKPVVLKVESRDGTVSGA

`COc1cncc(NS(=O)(=O)c2ccccc2C(=O)NCCc2cccc(Cl)c2)c1` [Example 152, N-[2-(3-chlorophenyl)ethyl]-2-{[(5-methoxypyridin-3-yl)amino]sulfonyl}benzamide]: the results for the IC50 at CYP3A4 [1] and on CYP3A4 [2] were 0.023 µM and 0.013 µM, respectively. Also, the values for the Ki on CYP3A4 [3] (setting [4]) and on CYP3A4 [3] (setting [5]) were 0.0461 µM and 0.0064 µM, respectively.

As for `COc1cncc(NS(=O)(=O)c2ccccc2C(=O)NCc2ccc3c(c2)CCO3)c1` [Example 153, N-(2,3-dihydro-1-benzofuran-5-ylmethyl)-2-{[(5-methoxypyridin-3-yl)amino]sulfonyl}benzamide], the IC50 turned out to be 0.019 µM on CYP3A4 [1] and 0.005 µM at CYP3A4 [2]. Moreover, the Ki amounted to 0.262 µM at CYP3A4 [3] (setting [4]) and 0.0271 µM at CYP3A4 [3] (setting [5]).

Turning to `Cc1cncc(NS(=O)(=O)c2ccccc2C(=O)N(C)CCc2ccccc2C)c1` [Example 154, N-methyl-N-[2-(2-methylphenyl)ethyl]-2-{[(5-methylpyridin-3-yl)amino]sulfonyl}benzamide], the IC50 was 0.023 µM at CYP3A4 [1] and 0.006 µM at CYP3A4 [2]. For the same compound, the Ki at CYP3A4 [3] (setting [4]) is 0.0115 µM; at CYP3A4 [3] (setting [5]), 0.0032 µM.

For the compound `Cc1cncc(NS(=O)(=O)c2ccccc2C(=O)NCc2cc(Cl)cc(Cl)c2)c1` [Example 155, N-(3,5-dichlorobenzyl)-2-{[(5-methylpyridin-3-yl)amino]sulfonyl}benzamide], the IC50 on CYP3A4 [1] stood at 0.015 µM; on CYP3A4 [2], 0.008 µM. The figures for the Ki at CYP3A4 [3] (setting [4]) and on CYP3A4 [3] (setting [5]) were 0.0028 µM and 0.0016 µM, respectively.

In the case of `Cc1cncc(NS(=O)(=O)c2ccccc2C(=O)NCc2ccc(F)c(C)c2)c1` [Example 156, N-(4-fluoro-3-methylbenzyl)-2-{[(5-methylpyridin-3-yl)amino]sulfonyl}benzamide], the values for the half-maximal inhibitory concentration (IC50) on CYP3A4 [1] and on CYP3A4 [2] were 0.011 µM and 0.013 µM, respectively. Moreover, the Ki stood at 0.084 µM at CYP3A4 [3] (setting [4]) and 0.005 µM at CYP3A4 [3] (setting [5]).

Take `Cc1cncc(NS(=O)(=O)c2ccccc2C(=O)NCc2ccc(C)c(F)c2)c1` [Example 157, N-(3-fluoro-4-methylbenzyl)-2-{[(5-methylpyridin-3-yl)amino]sulfonyl}benzamide]: the IC50 at CYP3A4 [1] and at CYP3A4 [2] was 0.008 µM each time. The Ki stood at 0.0494 µM at CYP3A4 [3] (setting [4]) and 0.0013 µM on CYP3A4 [3] (setting [5]).

Consider `Cc1cncc(NS(=O)(=O)c2ccccc2C(=O)NCc2ccc(F)c(Cl)c2)c1` [Example 158, N-(3-chloro-4-fluorobenzyl)-2-{[(5-methylpyridin-3-yl)amino]sulfonyl}benzamide], for which the IC50 at CYP3A4 [1] came to 0.01 µM; at CYP3A4 [2], 0.006 µM. In addition, the Ki at CYP3A4 [3] (setting [4]) is 0.0197 µM; on CYP3A4 [3] (setting [5]), 0.0009 µM.

For `Cc1cncc(NS(=O)(=O)c2ccccc2C(=O)NCc2ccc(S(C)(=O)=O)cc2)c1` [Example 159, 2-{[(5-methylpyridin-3-yl)amino]sulfonyl}-N-[4-(methylsulfonyl)benzyl]benzamide], the IC50 on CYP3A4 [1] came out at 0.129 µM; on CYP3A4 [2] it was 0.064 µM. Besides, the Ki at CYP3A4 [3] (setting [4]) was 0.751 µM; at CYP3A4 [3] (setting [5]) it was 0.144 µM.

In the case of `CCOc1ccncc1NS(=O)(=O)c1ccccc1C(=O)N(C)CCOC` [Example 160, 2-{[(4-ethoxypyridin-3-yl)amino]sulfonyl}-N-(2-methoxyethyl)-N-methylbenzamide], the IC50 stood at 0.202 µM at CYP3A4 [1] and 0.129 µM on CYP3A4 [2]. For the same compound, the Ki at CYP3A4 [3] (setting [4]) was over 1 µM; at CYP3A4 [3] (setting [5]) it was 0.163 µM.

As for `COCCN(C)C(=O)c1ccccc1S(=O)(=O)Nc1cnccc1OC` [Example 161, N-(2-methoxyethyl)-2-{[(4-methoxypyridin-3-yl)amino]sulfonyl}-N-methylbenzamide], the values for the half-inhibitory concentration (IC50) at CYP3A4 [1] and on CYP3A4 [2] were 0.371 µM and 0.308 µM, respectively. Also, the Ki on CYP3A4 [3] (setting [4]) is over 1 µM; on CYP3A4 [3] (setting [5]) it was 0.418 µM.

For `COCCN(C)C(=O)c1ccccc1S(=O)(=O)Nc1cncc(C)c1` [Example 162, N-(2-methoxyethyl)-N-methyl-2-{[(5-methylpyridin-3-yl)amino]sulfonyl}benzamide], the IC50 on CYP3A4 [1] worked out at 0.17 µM; at CYP3A4 [2] it was 0.093 µM. For the same compound, the Ki at CYP3A4 [3] (setting [4]) is 0.469 µM; at CYP3A4 [3] (setting [5]), 0.0999 µM.

Turning to `CN(Cc1ccc(F)c(F)c1)C(=O)c1ccccc1S(=O)(=O)Nc1cncc(F)c1` [Example 163, N-(3,4-difluorobenzyl)-2-{[(5-fluoropyridin-3-yl)amino]sulfonyl}-N-methylbenzamide], the IC50 at CYP3A4 [1] came to 0.082 µM; on CYP3A4 [2], 0.049 µM. Further, the Ki at CYP3A4 [3] (setting [4]) turned out to be 0.263 µM; at CYP3A4 [3] (setting [5]) it was 0.058 µM.

For the compound `Cc1ccncc1NS(=O)(=O)c1ccccc1C(=O)N(C)CCC(C)C` [Example 164, N-methyl-N-(3-methylbutyl)-2-{[(4-methylpyridin-3-yl)amino]sulfonyl}benzamide], the IC50 amounted to 0.047 µM at CYP3A4 [1] and 0.024 µM on CYP3A4 [2]. The values for the Ki at CYP3A4 [3] (setting [4]) and at CYP3A4 [3] (setting [5]) were 0.281 µM and 0.0343 µM, respectively.

For `Cc1ccncc1NS(=O)(=O)c1ccccc1C(=O)N(C)Cc1ccc(C(F)(F)F)cc1` [Example 165, N-methyl-2-{[(4-methylpyridin-3-yl)amino]sulfonyl}-N-[4-(trifluoromethyl)benzyl]benzamide], the IC50 at CYP3A4 [1] was found to be 0.054 µM; on CYP3A4 [2], 0.043 µM. In addition, the Ki at CYP3A4 [3] (setting [4]) is 0.163 µM; at CYP3A4 [3] (setting [5]) it was 0.0296 µM.

For the compound `Cc1ccc(CNC(=O)c2ccccc2S(=O)(=O)Nc2cnccc2C)cc1F` [Example 166, N-(3-fluoro-4-methylbenzyl)-2-{[(4-methylpyridin-3-yl)amino]sulfonyl}benzamide], the IC50 on CYP3A4 [1] turned out to be 0.026 µM; at CYP3A4 [2], 0.023 µM. Besides, the Ki at CYP3A4 [3] (setting [4]) worked out at 0.196 µM; at CYP3A4 [3] (setting [5]), 0.0351 µM.

Turning to `Cc1cc(CNC(=O)c2ccccc2S(=O)(=O)Nc2cnccc2C)ccc1F` [Example 167, N-(4-fluoro-3-methylbenzyl)-2-{[(4-methylpyridin-3-yl)amino]sulfonyl}benzamide], the IC50 amounted to 0.016 µM at CYP3A4 [1] and 0.009 µM on CYP3A4 [2]. The Ki at CYP3A4 [3] (setting [4]) worked out at 0.159 µM; on CYP3A4 [3] (setting [5]), 0.0174 µM.

Take `Cc1ccncc1NS(=O)(=O)c1ccccc1C(=O)NCc1ccc(F)c(Cl)c1` [Example 168, N-(3-chloro-4-fluorobenzyl)-2-{[(4-methylpyridin-3-yl)amino]sulfonyl}benzamide]: the IC50 at CYP3A4 [1] came to 0.018 µM; at CYP3A4 [2] it was 0.009 µM. The Ki turned out to be 0.066 µM at CYP3A4 [3] (setting [4]) and 0.0117 µM at CYP3A4 [3] (setting [5]).

`Cc1ccncc1NS(=O)(=O)c1ccccc1C(=O)NCc1ccc(S(C)(=O)=O)cc1` [Example 169, 2-{[(4-methylpyridin-3-yl)amino]sulfonyl}-N-[4-(methylsulfonyl)benzyl]benzamide]: the IC50 came out at 0.395 µM at CYP3A4 [1] and 0.139 µM on CYP3A4 [2]. Moreover, the Ki at CYP3A4 [3] (setting [4]) was over 1 µM; at CYP3A4 [3] (setting [5]), 0.187 µM.

As for `COCCN(C)C(=O)c1ccccc1S(=O)(=O)Nc1cnccc1C` [Example 170, N-(2-methoxyethyl)-N-methyl-2-{[(4-methylpyridin-3-yl)amino]sulfonyl}benzamide], the IC50 at CYP3A4 [1] is 0.285 µM; on CYP3A4 [2], 0.557 µM. Moreover, the Ki at CYP3A4 [3] (setting [4]) is over 1 µM; on CYP3A4 [3] (setting [5]) it was 0.427 µM.

For the compound `Cc1ccncc1NS(=O)(=O)c1ccccc1C(=O)NCCOc1ccccc1` [Example 171, 2-{[(4-methylpyridin-3-yl)amino]sulfonyl}-N-(2-phenoxyethyl)benzamide], the IC50 at CYP3A4 [1] came to 0.038 µM; at CYP3A4 [2] it was 0.035 µM. Besides, the Ki came out at 0.299 µM at CYP3A4 [3] (setting [4]) and 0.0491 µM at CYP3A4 [3] (setting [5]).

Consider `Cc1ccncc1NS(=O)(=O)c1ccccc1C(=O)N(C)Cc1ccc(F)c(F)c1` [Example 172, N-(3,4-difluorobenzyl)-N-methyl-2-{[(4-methylpyridin-3-yl)amino]sulfonyl}benzamide], for which the IC50 at CYP3A4 [1] was determined as 0.034 µM; at CYP3A4 [2] it was 0.044 µM. Besides, the Ki at CYP3A4 [3] (setting [4]) was 0.173 µM; at CYP3A4 [3] (setting [5]), 0.0217 µM.

Consider `COc1cncc(NS(=O)(=O)c2ccccc2C(=O)N(C)CCOc2ccccc2)c1` [Example 173, 2-{[(5-methoxypyridin-3-yl)amino]sulfonyl}-N-methyl-N-(2-phenoxyethyl)benzamide], for which the IC50 at CYP3A4 [1] was found to be 0.018 µM; at CYP3A4 [2] it was 0.016 µM. The Ki is 0.104 µM at CYP3A4 [3] (setting [4]) and 0.0099 µM on CYP3A4 [3] (setting [5]).

Regarding `COCCNC(=O)c1ccccc1S(=O)(=O)Nc1cnccc1C` [Example 174, N-(2-methoxyethyl)-2-{[(4-methylpyridin-3-yl)amino]sulfonyl}benzamide], the IC50 at CYP3A4 [1] turned out to be 0.356 µM; at CYP3A4 [2] it was 0.451 µM. Further, the Ki on CYP3A4 [3] (setting [4]) was over 1 µM; on CYP3A4 [3] (setting [5]) it was 0.392 µM.

For the compound `COc1cncc(NS(=O)(=O)c2ccccc2C(=O)NCc2cccc(Cl)c2F)c1` [Example 175, N-(3-chloro-2-fluorobenzyl)-2-{[(5-methoxypyridin-3-yl)amino]sulfonyl}benzamide], the IC50 on CYP3A4 [1] and at CYP3A4 [2] was 0.009 µM in each case. Also, the values for the Ki at CYP3A4 [3] (setting [4]) and at CYP3A4 [3] (setting [5]) were 0.024 µM and 0.0013 µM, respectively.

In the case of `COc1cncc(NS(=O)(=O)c2ccccc2C(=O)NCCO)c1` [Example 176, N-(2-hydroxyethyl)-2-{[(5-methoxypyridin-3-yl)amino]sulfonyl}benzamide], the IC50 on CYP3A4 [1] is over 0.75 µM; at CYP3A4 [2], 0.406 µM. Moreover, the figures for the Ki on CYP3A4 [3] (setting [4]) and on CYP3A4 [3] (setting [5]) were over 1 µM and 0.625 µM, respectively.
